Experiments:
SMARCA4 = SMARCA4 (Homo sapiens, UniProt P51532); assay: HiBiT assay for protein degradation, Hela SMARCA4-HiBiT cells (A series); type: cell-based; design: fuse HiBiT to the carboxy terminus of SMARCA2 (Promega CS302365) or SMARCA4 (Promega CS3023225); host or cells: HeLa (CRISPR/Cas9 HiBiT knock-in); settings: Hela SMARCA4-HiBiT cells, 24 hours treatment; for DC50: read-out: SMARC A4 Hela HiBit DC50; for Dmax: read-out: SMARC A4 Hela HiBit Dmax
How it was run: (§1)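 HeLa cells engineered by CRISPR/Cas9 to carry a HiBiT tag fused to the C-terminus of SMARCA4 (Promega CS3023225) were grown in DMEM supplemented with FBS and penicillin-streptomycin. After compound exposure, remaining SMARCA4 protein was quantified using the Nano-Glo® HiBiT Lytic Detection Assay (Promega N3050), and curves were fitted in GraphPad Prism.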

SMARCA2 = SMARCA2 (Homo sapiens, UniProt P51531); assay: HiBiT assay for protein degradation, Hela SMARCA2-HiBiT cells (A series); type: cell-based; design: Hela cells were genetically modified via CRISPR/Cas9 to fuse HiBiT to the carboxy terminus of SMARCA2; host or cells: HeLa (CRISPR/Cas9 HiBiT knock-in); settings: Hela SMARCA2-HiBiT cells, 24 hours treatment; for DC50: read-out: SMARC A2 Hela HiBit DC50; for Dmax: read-out: SMARC A2 Hela HiBit Dmax (%);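 as to SMARC A2 Hela HiBit Dmax (%): 24 h compound treatment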
How it was run: as §1, with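 “SMARCA2” for “SMARCA4”, “CS302365)” for “CS3023225)”, “treatment,” for “compound exposure,”, “with” for “using”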

Chain of SMARCA2 (P51531 whole entry): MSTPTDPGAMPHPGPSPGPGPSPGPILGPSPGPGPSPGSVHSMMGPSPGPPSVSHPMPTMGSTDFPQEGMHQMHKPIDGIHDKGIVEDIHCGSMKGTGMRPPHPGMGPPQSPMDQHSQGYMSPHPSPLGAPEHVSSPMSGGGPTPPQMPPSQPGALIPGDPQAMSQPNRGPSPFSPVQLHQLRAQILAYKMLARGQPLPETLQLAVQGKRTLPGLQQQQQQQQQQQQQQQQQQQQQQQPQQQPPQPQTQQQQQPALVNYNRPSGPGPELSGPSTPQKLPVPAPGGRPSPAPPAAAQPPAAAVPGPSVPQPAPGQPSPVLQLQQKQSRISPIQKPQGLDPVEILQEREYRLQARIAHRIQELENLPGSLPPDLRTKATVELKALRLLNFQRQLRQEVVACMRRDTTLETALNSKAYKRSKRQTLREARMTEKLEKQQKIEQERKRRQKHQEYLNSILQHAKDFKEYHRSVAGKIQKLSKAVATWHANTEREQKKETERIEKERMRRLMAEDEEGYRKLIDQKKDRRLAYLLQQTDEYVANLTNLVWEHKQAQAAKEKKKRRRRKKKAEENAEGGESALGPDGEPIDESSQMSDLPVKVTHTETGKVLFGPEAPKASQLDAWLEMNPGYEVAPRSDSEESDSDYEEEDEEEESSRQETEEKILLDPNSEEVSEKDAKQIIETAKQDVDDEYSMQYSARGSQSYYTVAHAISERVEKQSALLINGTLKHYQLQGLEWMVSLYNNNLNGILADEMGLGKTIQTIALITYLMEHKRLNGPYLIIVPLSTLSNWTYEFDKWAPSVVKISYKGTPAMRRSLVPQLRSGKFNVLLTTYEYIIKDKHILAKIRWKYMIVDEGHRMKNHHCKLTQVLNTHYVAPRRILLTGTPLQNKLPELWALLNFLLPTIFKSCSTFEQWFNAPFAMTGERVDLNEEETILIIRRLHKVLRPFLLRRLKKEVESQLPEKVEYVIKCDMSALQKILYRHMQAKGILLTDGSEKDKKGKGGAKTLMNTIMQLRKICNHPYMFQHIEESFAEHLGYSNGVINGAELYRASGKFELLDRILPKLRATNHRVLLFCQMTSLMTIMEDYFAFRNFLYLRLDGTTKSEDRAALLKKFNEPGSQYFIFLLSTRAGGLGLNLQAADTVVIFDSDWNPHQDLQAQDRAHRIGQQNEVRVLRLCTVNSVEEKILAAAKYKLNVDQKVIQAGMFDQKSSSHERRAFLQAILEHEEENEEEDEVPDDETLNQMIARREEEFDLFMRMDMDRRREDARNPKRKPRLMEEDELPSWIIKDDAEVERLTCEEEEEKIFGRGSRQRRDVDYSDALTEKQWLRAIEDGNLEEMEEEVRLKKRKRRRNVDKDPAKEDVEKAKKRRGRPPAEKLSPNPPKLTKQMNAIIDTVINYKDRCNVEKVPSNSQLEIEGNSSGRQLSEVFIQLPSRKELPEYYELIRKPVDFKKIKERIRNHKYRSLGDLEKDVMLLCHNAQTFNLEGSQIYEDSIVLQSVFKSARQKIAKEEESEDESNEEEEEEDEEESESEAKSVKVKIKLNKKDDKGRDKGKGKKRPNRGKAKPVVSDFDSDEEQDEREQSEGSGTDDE
Chain of SMARCA4 (P51532 whole entry, the tested form may be a part): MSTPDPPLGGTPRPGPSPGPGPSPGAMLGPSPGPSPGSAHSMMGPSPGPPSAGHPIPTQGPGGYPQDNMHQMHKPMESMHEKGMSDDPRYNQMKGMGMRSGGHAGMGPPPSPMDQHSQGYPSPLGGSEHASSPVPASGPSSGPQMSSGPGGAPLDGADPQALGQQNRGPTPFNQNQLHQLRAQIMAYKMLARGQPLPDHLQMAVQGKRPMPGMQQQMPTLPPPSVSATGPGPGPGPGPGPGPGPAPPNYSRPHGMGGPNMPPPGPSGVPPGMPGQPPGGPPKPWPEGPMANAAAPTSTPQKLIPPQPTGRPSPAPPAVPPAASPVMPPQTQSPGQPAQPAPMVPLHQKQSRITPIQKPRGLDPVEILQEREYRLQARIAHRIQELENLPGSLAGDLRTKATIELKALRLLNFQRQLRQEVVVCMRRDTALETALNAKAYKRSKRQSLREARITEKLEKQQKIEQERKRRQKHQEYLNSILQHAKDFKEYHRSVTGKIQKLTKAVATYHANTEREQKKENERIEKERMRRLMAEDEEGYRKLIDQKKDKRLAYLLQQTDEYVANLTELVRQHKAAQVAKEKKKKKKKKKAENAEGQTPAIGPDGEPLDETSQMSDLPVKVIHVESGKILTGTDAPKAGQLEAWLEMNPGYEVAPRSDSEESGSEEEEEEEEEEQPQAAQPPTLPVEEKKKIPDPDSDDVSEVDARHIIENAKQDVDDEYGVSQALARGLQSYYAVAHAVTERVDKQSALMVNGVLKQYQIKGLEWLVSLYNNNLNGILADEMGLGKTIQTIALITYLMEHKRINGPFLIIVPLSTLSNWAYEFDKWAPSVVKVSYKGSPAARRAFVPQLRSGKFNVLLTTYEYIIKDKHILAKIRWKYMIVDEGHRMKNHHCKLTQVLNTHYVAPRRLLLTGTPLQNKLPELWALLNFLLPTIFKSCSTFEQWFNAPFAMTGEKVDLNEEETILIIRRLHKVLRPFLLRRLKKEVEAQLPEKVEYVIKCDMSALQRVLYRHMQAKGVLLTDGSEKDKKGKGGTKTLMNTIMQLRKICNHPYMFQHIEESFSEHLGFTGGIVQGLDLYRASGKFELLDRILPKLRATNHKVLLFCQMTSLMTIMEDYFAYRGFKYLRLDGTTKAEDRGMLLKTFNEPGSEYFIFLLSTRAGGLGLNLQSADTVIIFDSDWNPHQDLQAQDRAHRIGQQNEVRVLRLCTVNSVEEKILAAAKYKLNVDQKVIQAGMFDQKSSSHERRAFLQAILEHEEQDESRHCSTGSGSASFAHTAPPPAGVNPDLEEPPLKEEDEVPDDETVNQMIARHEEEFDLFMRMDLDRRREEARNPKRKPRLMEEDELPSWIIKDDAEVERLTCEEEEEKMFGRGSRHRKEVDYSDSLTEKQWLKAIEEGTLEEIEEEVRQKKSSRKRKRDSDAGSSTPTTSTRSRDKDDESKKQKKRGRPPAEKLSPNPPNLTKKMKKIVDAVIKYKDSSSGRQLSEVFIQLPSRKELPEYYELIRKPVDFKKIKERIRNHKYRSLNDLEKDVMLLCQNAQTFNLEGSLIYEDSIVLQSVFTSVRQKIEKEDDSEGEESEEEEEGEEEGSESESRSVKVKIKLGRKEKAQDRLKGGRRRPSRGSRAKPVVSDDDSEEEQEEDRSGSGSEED

| SMILES | DC50 (SMARCA4) [nM] | Dmax (SMARCA4) [%] | DC50 (SMARCA2) [nM] | Dmax (SMARCA2) [%] |
| --- | --- | --- | --- | --- |
| Cc1ncsc1-c1ccc([C@H](CN2CCOCC2)NC(=O)[C@@H]2C[C@@H](O)CN2C(=O)[C@@H](n2cc([C@H]3CC[C@H](CN4CCC(c5ccc6c(c5)-n5c(nc(=O)c7c(Cl)cccc75)C65CCCCC5)CC4)CC3)nn2)C(C)(C)O)cc1 [Compound A158, (2S,4R)-1-((S)-2-(4-((1r,4S)-4-((4-(4′-chloro-5′-oxo-5′H-spiro[cyclohexane-1,7′-indolo[1,2-a]quinazolin]-10′-yl)piperidin-1-yl)methyl)cyclohexyl)-1H-1,2,3-triazol-1-yl)-3-hydroxy-3-methylbutanoyl)-4-hydroxy-N-((R)-1-(4-(4-methylthiazol-5-yl)phenyl)-2-morpholinoethyl)pyrrolidine-2-carboxamide] | > 1000 | 50 to 69 | < 10 | > 90 |
| Cc1ncsc1-c1ccc([C@H](CN2CCOCC2)NC(=O)[C@@H]2C[C@@H](O)CN2C(=O)[C@@H](n2cc([C@H]3CC[C@H](CN4CCC(c5ccc6c(c5)-n5c(nc(=O)c7c(Cl)cccc75)C6(C)C)CC4)CC3)nn2)C(C)(C)O)cc1 [Compound A159, (2S,4R)-1-((S)-2-(4-((1r,4S)-4-((4-(4-chloro-7,7-dimethyl-5-oxo-5,7-dihydroindolo[1,2-a]quinazolin-10-yl)piperidin-1-yl)methyl)cyclohexyl)-1H-1,2,3-triazol-1-yl)-3-hydroxy-3-methylbutanoyl)-4-hydroxy-N-((R)-1-(4-(4-methylthiazol-5-yl)phenyl)-2-morpholinoethyl)pyrrolidine-2-carboxamide] | > 1000 | 50 to 69 | < 10 | > 90 |
| Cc1ncsc1-c1ccc([C@H](CN2CCOCC2)NC(=O)[C@@H]2C[C@@H](O)CN2C(=O)[C@@H](n2cc([C@H]3CC[C@H](CN4CCC(c5ccc6c(c5)-n5c(nc(=O)c7c(Br)cccc75)C65CCCCC5)CC4)CC3)nn2)C(C)(C)O)cc1 [Compound A160, (2S,4R)-1-((S)-2-(4-((1r,4S)-4-((4-(4′-bromo-5′-oxo-5′H-spiro[cyclohexane-1,7′-indolo[1,2-a]quinazolin]-10′-yl)piperidin-1-yl)methyl)cyclohexyl)-1H-1,2,3-triazol-1-yl)-3-hydroxy-3-methylbutanoyl)-4-hydroxy-N-((R)-1-(4-(4-methylthiazol-5-yl)phenyl)-2-morpholinoethyl)pyrrolidine-2-carboxamide] | > 1000 | 50 to 69 | < 10 | > 90 |
| Cc1nc(C)c(-c2ccc([C@H](CN3CCOCC3)NC(=O)[C@@H]3C[C@@H](O)CN3C(=O)[C@@H](n3cc([C@H]4CC[C@H](CN5CCC(c6ccc7c(c6)-n6c(nc(=O)c8c(Cl)cccc86)C76CCCCC6)CC5)CC4)nn3)C(C)(C)C)cc2)s1 [Compound A161, (2S,4R)-1-((S)-2-(4-((1r,4S)-4-((4-(4′-chloro-5′-oxo-5′H-spiro[cyclohexane-1,7′-indolo[1,2-a]quinazolin]-10′-yl)piperidin-1-yl)methyl)cyclohexyl)-1H-1,2,3-triazol-1-yl)-3,3-dimethylbutanoyl)-N—((R)-1-(4-(2,4-dimethylthiazol-5-yl)phenyl)-2-morpholinoethyl)-4-hydroxypyrrolidine-2-carboxamide] | 100 to 1000 | 50 to 69 | < 10 | > 90 |
| CC(C)(C)[C@@H](C(=O)N1C[C@H](O)C[C@H]1C(=O)N[C@@H](CN1CCOCC1)c1ccc(-c2ccccc2)cc1)n1cc([C@H]2CC[C@H](CN3CCC(c4ccc5c(c4)-n4c(nc(=O)c6c(Cl)cccc64)C54CCCCC4)CC3)CC2)nn1 [Compound A162, (2S,4R)—N—((R)-1-([1,1′-biphenyl]-4-yl)-2-morpholinoethyl)-1-((S)-2-(4-((1r,4S)-4-((4-(4′-chloro-5′-oxo-5′H-spiro[cyclohexane-1,7′-indolo[1,2-a]quinazolin]-10′-yl)piperidin-1-yl)methyl)cyclohexyl)-1H-1,2,3-triazol-1-yl)-3,3-dimethylbutanoyl)-4-hydroxypyrrolidine-2-carboxamide] | 100 to 1000 | 50 to 69 | < 10 | > 90 |
| Cc1ccccc1-c1ccc([C@H](CN2CCOCC2)NC(=O)[C@@H]2C[C@@H](O)CN2C(=O)[C@@H](n2cc([C@H]3CC[C@H](CN4CCC(c5ccc6c(c5)-n5c(nc(=O)c7c(Cl)cccc75)C65CCCCC5)CC4)CC3)nn2)C(C)(C)C)cc1 [Compound A163, (2S,4R)-1-((S)-2-(4-((1r,4S)-4-((4-(4′-chloro-5′-oxo-5′H-spiro[cyclohexane-1,7′-indolo[1,2-a]quinazolin]-10′-yl)piperidin-1-yl)methyl)cyclohexyl)-1H-1,2,3-triazol-1-yl)-3,3-dimethylbutanoyl)-4-hydroxy-N—((R)-1-(2′-methyl-[1,1′-biphenyl]-4-yl)-2-morpholinoethyl)pyrrolidine-2-carboxamide] | 100 to 1000 | 50 to 69 | < 10 | > 90 |
| CC(C)(C)[C@@H](C(=O)N1C[C@H](O)C[C@H]1C(=O)N[C@@H](CN1CCOCC1)c1ccc(-c2ccccc2F)cc1)n1cc([C@H]2CC[C@H](CN3CCC(c4ccc5c(c4)-n4c(nc(=O)c6c(Cl)cccc64)C54CCCCC4)CC3)CC2)nn1 [Compound A164, (2S,4R)-1-((S)-2-(4-((1r,4S)-4-((4-(4′-chloro-5′-oxo-5′H-spiro[cyclohexane-1,7′-indolo[1,2-a]quinazolin]-10′-yl)piperidin-1-yl)methyl)cyclohexyl)-1H-1,2,3-triazol-1-yl)-3,3-dimethylbutanoyl)-N—((R)-1-(2′-fluoro-[1,1′-biphenyl]-4-yl)-2-morpholinoethyl)-4-hydroxypyrrolidine-2-carboxamide] | 100 to 1000 | 50 to 69 | < 10 | > 90 |
| Cc1ncoc1-c1ccc([C@H](CN2CCOCC2)NC(=O)[C@@H]2C[C@@H](O)CN2C(=O)[C@@H](n2cc([C@H]3CC[C@H](CN4CCC(c5ccc6c(c5)-n5c(nc(=O)c7c(Cl)cccc75)C65CCCCC5)CC4)CC3)nn2)C(C)(C)C)cc1 [Compound A165, (2S,4R)-1-((S)-2-(4-((1r,4S)-4-((4-(4′-chloro-5′-oxo-5′H-spiro[cyclohexane-1,7′-indolo[1,2-a]quinazolin]-10′-yl)piperidin-1-yl)methyl)cyclohexyl)-1H-1,2,3-triazol-1-yl)-3,3-dimethylbutanoyl)-4-hydroxy-N—((R)-1-(4-(4-methyloxazol-5-yl)phenyl)-2-morpholinoethyl)pyrrolidine-2-carboxamide] | > 1000 | < 50 | < 10 | > 90 |
| Cc1nc(C)c(-c2ccc([C@H](CN3CCOCC3)NC(=O)[C@@H]3C[C@@H](O)CN3C(=O)[C@@H](n3cc([C@H]4CC[C@H](CN5CCC(c6ccc7c(c6)-n6c(nc(=O)c8c(Cl)cccc86)C76CCCCC6)CC5)CC4)nn3)C(C)(C)C)cc2)o1 [Compound A166, (2S,4R)-1-((S)-2-(4-((1r,4S)-4-((4-(4′-chloro-5′-oxo-5′H-spiro[cyclohexane-1,7′-indolo[1,2-a]quinazolin]-10′-yl)piperidin-1-yl)methyl)cyclohexyl)-1H-1,2,3-triazol-1-yl)-3,3-dimethylbutanoyl)-N—((R)-1-(4-(2,4-dimethyloxazol-5-yl)phenyl)-2-morpholinoethyl)-4-hydroxypyrrolidine-2-carboxamide] | > 1000 | < 50 | 10 to 100 | 70 to 90 |
| CC(C)(C)[C@@H](C(=O)N1C[C@H](O)C[C@H]1C(=O)N[C@@H](CN1CCOCC1)c1ccc(-c2scnc2C(F)(F)F)cc1)n1cc([C@H]2CC[C@H](CN3CCC(c4ccc5c(c4)-n4c(nc(=O)c6c(Cl)cccc64)C54CCCCC4)CC3)CC2)nn1 [Compound A167, (2S,4R)-1-((S)-2-(4-((1r,4S)-4-((4-(4′-chloro-5′-oxo-5′H-spiro[cyclohexane-1,7′-indolo[1,2-a]quinazolin]-10′-yl)piperidin-1-yl)methyl)cyclohexyl)-1H-1,2,3-triazol-1-yl)-3,3-dimethylbutanoyl)-4-hydroxy-N—((R)-2-morpholino-1-(4-(4-(trifluoromethyl)thiazol-5-yl)phenyl)ethyl)pyrrolidine-2-carboxamide] | > 1000 | < 50 | > 1000 | < 50 |
